Test results from US20120128821A1, “PROBIOTIC MICROORGANISMS ISOLATED FROM DONKEY MILK” (EUROLACTIS GROUP SA, priority 2009, published 2012).

Experiment: Production of organic acids after fermentation in donkey milk (HPLC)
Settings: absolute area, produced during fermentation, grown in donkey milk
Protocol: The production of organic acids after fermentation was determined by high-performance liquid chromatography of filtered supernatants (Vulevic, Rastall & Gibson, 2004; Nazzaro et al. 2009), using a Gold System apparatus equipped with an ultraviolet detector (Beckman, CA, USA). Samples were loaded onto a pre-packed Aminex HPX-87 column (300 7.8 mm, Bio-Rad, Hercules, Calif., USA) and eluted with […] sulphuric acid. Total running time was 40 min; flow rate was 0.6 ml/min; injection volume was 20 μl; and detection wavelength was 210 nm.
In the following tables are reported the amount of butyric acid and citric acid produced during fermentation by strains of the invention and some strains of reference, grown in donkey milk. The data are expressed in terms of absolute area (mm^2): […]

**Q.** What does the source list for Lactobacillus acidophilus?
**A.** Amount of butyric acid: 26.21 mm^2; Amount of citric acid: 51.37 mm^2
